Results on 4 compounds are retold here after publication PMC9698358, “The Discovery of Novel Ferulic Acid Derivatives Incorporating Substituted Isopropanolamine Moieties as Potential Tobacco Mosaic Virus Helicase Inhibitors” (International Journal of Molecular Sciences, 2022).

The target in assay [1] is T1, TMV helicase (Tobacco mosaic virus, UniProt Q9IBK4).
T1 construct: helicase domain of the 126/183 kDa replicase
Briefly: ATPase activity, malachite green phosphate release. The assay is classed as biochemical.

Assay [2] has as its target T1, TMV helicase. Briefly: microscale thermophoresis. The assay is classed as binding. Background: In MST a laser heats a spot of the sample, and binding alters the fluorescence response.

T1 sequence (Q9IBK4 entry or part of it): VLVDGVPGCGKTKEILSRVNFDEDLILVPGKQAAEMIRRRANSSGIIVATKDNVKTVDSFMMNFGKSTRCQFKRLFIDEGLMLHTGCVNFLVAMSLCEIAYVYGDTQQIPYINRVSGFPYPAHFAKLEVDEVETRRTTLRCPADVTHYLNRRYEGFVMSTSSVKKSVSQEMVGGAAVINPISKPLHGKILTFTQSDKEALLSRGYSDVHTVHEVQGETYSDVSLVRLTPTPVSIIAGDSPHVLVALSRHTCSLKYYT

For the compound `COC(=O)/C=C/c1ccc(OCC(O)CN2CCN(Cc3ccccc3C)CC2)c(OC)c1` (stereo not shown) [A31], the inhibition (usually the drop in the measured response relative to a control, in per cent) at 200 µM in assay [1] was found to be 47%. Besides, the Kd (commonly the equilibrium constant for the complex coming apart) in assay [2] was found to be 13.5 µM. With `COc1cc(/C=C/C(=O)O)ccc1O` [FA, 3-methoxy-4-hydroxycinnamic acid], 200 µM produced 26.4% inhibition in assay [1].

For the compound `COC(=O)/C=C/c1ccc(OC[C@H](O)CN2CCOCC2)c(OC)c1` [R-A19], the inhibition at 200 µM in assay [1] was found to be 50.6%. In assay [2], this compound returned a Kd of 5.4 µM. The corresponding values for `COC(=O)/C=C/c1ccc(OC[C@@H](O)CN2CCOCC2)c(OC)c1` [S-A19] are 44.5% and 22.8 µM.
